{"source": "paper PMC7504721", "about": "“Targeting the Initiator Protease of the Classical Pathway of Complement Using Fragment-Based Drug Discovery” (Molecules, 2020)", "key": {"full-length C1r": {"target": "T1, full-length C1r (Homo sapiens, UniProt P00736)", "T1 construct": "purchased Complement Technology (CompTech)", "T1 sequence (P00736 18-463 limits assumed)": "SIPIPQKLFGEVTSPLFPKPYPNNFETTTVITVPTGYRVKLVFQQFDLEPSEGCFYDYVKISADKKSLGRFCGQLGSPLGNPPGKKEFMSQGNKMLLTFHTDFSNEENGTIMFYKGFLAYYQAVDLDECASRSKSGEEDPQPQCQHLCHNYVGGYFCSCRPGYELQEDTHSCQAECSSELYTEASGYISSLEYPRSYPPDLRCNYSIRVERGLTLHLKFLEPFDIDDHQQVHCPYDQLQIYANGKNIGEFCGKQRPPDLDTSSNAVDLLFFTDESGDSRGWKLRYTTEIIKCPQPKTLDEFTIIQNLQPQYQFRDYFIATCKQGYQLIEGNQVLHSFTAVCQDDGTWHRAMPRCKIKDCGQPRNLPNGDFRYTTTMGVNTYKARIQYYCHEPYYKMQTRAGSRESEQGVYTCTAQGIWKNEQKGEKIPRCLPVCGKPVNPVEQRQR", "T1 sequence (P00736 464-705 limits assumed)": "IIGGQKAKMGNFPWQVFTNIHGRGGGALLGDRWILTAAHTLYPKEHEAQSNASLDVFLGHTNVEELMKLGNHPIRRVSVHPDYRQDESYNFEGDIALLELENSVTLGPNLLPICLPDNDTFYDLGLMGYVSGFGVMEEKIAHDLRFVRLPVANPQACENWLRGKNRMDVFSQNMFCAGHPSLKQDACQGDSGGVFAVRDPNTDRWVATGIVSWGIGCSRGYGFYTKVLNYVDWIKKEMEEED", "experiment": "SPR dose-dependent binding, steady-state affinity", "method": "All SPR experiments were carried out using a Biacore T200 (GE Healthcare, Chicago, IL, USA) at 25 °C. For all experiments, a running buffer (HBS-T) of 20 mM HEPES (pH 7.3), 140 mM NaCl, 0.005% (v/v) Tween-20, 5% DMSO (v/v) was used. For each experiment, DMSO calibration curves ranging from 4% to 5.5% DMSO (v/v) were collected at the beginning, end, and every 50 cycles throughout the duration of the experiment. All experiments were performed using HC1500M sensor chips (Xantec, Duesseldorf, Germany). In total, 10 sensor chips and 16 ligand immobilized surfaces were created over the course of this study (detailed in Table S2). In all cases, C1r proteins were immobilized onto chip surfaces using amine-coupling chemistry with 1-ethyl-3-(3-dimethylaminopropyl)-carbodiimide) (EDC), N-hydroxysuccinimide (NHS), followed by ethanolamine. Briefly, 100 mM of EDC and NHS were mixed and injected to activate the chip surface followed by the C1r protein ligand captured at a defined resonance unit (RU) level, followed by reaction quenching with 100 mM ethanolamine pH 8.5. Flow cell 1 was always used as a reference cell (no ligand), unless otherwise noted. All sensorgrams were reference and blank subtracted and analyzed using T200 Evaluation Software (GE Healthcare, Chicago, IL, USA).\nTo further evaluate hit compounds from the initial SPR screen, dose-dependent SPR binding assays were carried out. Three replicate flow cells were used containing both low and high immobilization densities of C1r (see Table S2). Hit compounds were tested for dose-dependent binding to full-length C1r using a compound concentration range of 7.8–500 µM. T200 evaluation software was used to calculate steady-state affinities for each compound by fitting sensorgrams from each variable concentration injection dataset using a 1:1 Langmuir model of interaction constrained by a theoretical experimental binding response based on the mol. wt. of each compound and derived as stated above. KD values are reported as the mean ± the standard deviation from at least three independent measurements."}, "classical pathway": {"test_system": "classical pathway", "experiment": "Classical pathway-specific ELISA-based complement inhibition assay (C4b deposition, IgM-coated plate, human serum)", "assay_type": "biochemical", "conditions": "single 500 µM concentration, triplicate, 1% normal human serum, unpaired t-test p < 0.05", "method": "To carry out classical pathway ELISA-based inhibition assays, IgM was dissolved in coating buffer (100 mM Na2CO3/NaHCO3, pH 9.6) to a final concentration of 3 µg/mL and was dispensed into 96-well plates at 100 µL per well. Mannan was dissolved to 2 µg/mL and lipopolysaccharides (LPS) were dissolved to 10 µg/mL in coating buffer for use in lectin and alternative pathway inhibition assays, respectively. Immobilization was allowed to proceed overnight at 25 °C. The immobilization reagent was then removed, followed by three washes in washing buffer (50 mM Tris pH 8.0, 200 mM NaCl, 0.05% (v/v) Tween-20), and blocked using 100 µL of 1% (w/v) bovine serum albumin in PBS-T for 1 h at 37°C. Blocking buffer was removed and plates were washed three times in washing buffer. Next, 500 µM of each compound, 5% (v/v) DMSO, and 1% (v/v) normal human serum (Innovative Research) (final concentrations) were dissolved in classical/lectin pathway ELISA buffer (20 mM HEPES (pH 7.3), 0.1% (w/v) gelatin, 140 mM NaCl, 2 mM CaCl2, 0.5 mM MgCl2) and added to the IgM-coated plate for 1 h at 37 °C. For the lectin pathway-specific ELISAs shown in Figure 5D, we used C1q-depleted serum from CompTech at 2% (v/v) and thus the classical pathway assays for this analysis were also performed using serum from CompTech at 2% (v/v). For the alternative pathway, 20% (v/v) normal human serum (CompTech) (final concentration) and alternative pathway ELISA buffer (20 mM HEPES, (pH 7.5), 0.1% (w/v) gelatin, 140 mM NaCl, 2 mM CaCl2, 0.5 mM MgCl2) were used in place of classical/lectin pathway ELISA buffer. Plates were then washed three times in wash buffer and each well was filled with 100 µL of α-C4 (HYB 162-02, Santa Cruz Biotechnology) diluted 1:300 for classical and lectin pathway assays and 100 µL of C3b (WM-1, Sigma) diluted 1:300 for alternative pathway assays. Plates were again incubated at 37 °C for 1 h, washed three times, filled with 100 µL of HRP-conjugated goat-α-mouse secondary antibody (diluted 1:3000) (Thermo Scientific, Waltham, MA, USA), and rocked gently for 1 h at 25 °C. After three more washes, 50 µl of substrate (1-step Ultra TMB, Thermo Scientific, Waltham, MA, USA) was added to each well and rocked for 15 min in the dark at 25 °C. The reaction was stopped with 50 µL of 0.16 M sulfuric acid, and the plate was read at 450 nm using an EnSight multimode plate reader (Perkin-Elmer). Each column contained a positive control for full complement activity (5% (v/v) blank DMSO with 1% (v/v) serum) and a negative control for no complement activity (5% (v/v) blank DMSO and no serum). Positive controls (1% (v/v) serum, no inhibitor) were defined as 100% C4b or C3b signal whereas negative controls (no serum) were defined as 0% C4b or C3b signal for each column. Compounds that inhibited complement deposition relative to the control were then evaluated using the same assay setup across a two-fold variable concentration series for each compound (7.8–500 µM). […] All experiments were performed no less than three times.\nStatistical analyses were performed using GraphPad Prism version 8. For complement inhibition assays, measures of statistical significance for single-dose experiments were assessed using unpaired Student’s t-tests compared to no inhibitor controls (pathway ELISAs) or non-binding control compounds (classical pathway ELISA). Statistical significance was defined as p < 0.05. Calculation of IC50 values from dose-dependent complement assays were obtained by non-linear regression analysis using a using an inhibitor vs. response model and with 95% confidence intervals reported. For non-linear regression analyses, the top and bottom of each curve were constrained to 100 and 0, respectively."}}, "data": [{"molecule": "CN1c2ccccc2N(C)C1c1ccccc1", "note": "[CMP-4]", "values": [{"measurement": "Kd", "setting": "full-length C1r; 1:1 steady-state binding model, mean ± S.D. from three independent injection series, 25 °C", "result": 720, "unit": "µM"}, {"measurement": "Ligand efficiency (LE)", "setting": "full-length C1r; LE = ΔG/number of non-hydrogen atoms, ΔG = -RT x ln KD,C1r, using KD values of Fig. 3", "result": 0.25}, {"measurement": "inhibition of classical pathway (C4b deposition) relative to non-binding control compound", "setting": "classical pathway", "result": "statistically significant inhibitory activity"}]}]}
